Tests used:
[1] = Particle size by Malvern Mastersizer S (volume distribution); assay type: physicochemical
Method: The particle size for desvenlafaxine succinate was measured using a Malvern Mastersizer S particle size analyzer with an MS1 Small Volume Sample Dispersion Unit stirred cell. A 300RF mm lens and a beam length of 2.4 mm were used. Samples for analysis were prepared by dispersing a weighed amount of desvenlafaxine succinate (approximately 0.1 g) in 20 mL of Lecithin Solution, previously prepared by dilution of 1.5 g of Soybean Lecithin to 200 mL of Isopar G. Mix gently until Lecithin dissolves (Lecithin solution). If it is necessary the solution can be sonicated. The suspension was delivered drop-wise to a background corrected measuring cell previously filled with dispersant (Isopar G) until the obscuration reached the desired level. Volume distributions were obtained for three times. Before and after the analysis, purge the sample and flush the MS1 unit with ethanol twice and with the dispersant at least three times. For characterization, the values of D10, D50 and D90 (by volume) were specifically listed, each one being the mean of the […] values available for each characterization parameter.

[2] = BET specific surface area (Micromeritics ASAP2010, N2 adsorption); assay type: physicochemical; settings: N2 at 77.3 K
Method: The BET (Brunauer, Emmett and Teller) specific surface area for desvenlafaxine succinate was measured using a Micromeritics ASAP2010 equipment. Samples for analysis were degassed at 30° C.-70° C. under vacuum for about two hours. The determination of the adsorption of N2 at 77.3° K was measured for relative pressures in the range of 0.05-0.3 for a weighed amount of desvenlafaxine succinate (i.e., approximately 0.5 g).

[3] = milled and sieved desvenlafaxine succinate

D50 (v) particle size [1, 3]: approximately 41 μm
D90 (v) particle size [1, 3]: approximately 155 μm
D10 (v) particle diameter less than ([1]; summary statement): approximately 4 μM
surface area [2]: 0.8457±0.0039 m^2/g
surface area ([2]; listed as Desvenlafaxine succinate): approximately 0.8457±0.0039 m^2/g
Compound: CN(C)CC(c1ccc(O)cc1)C1(O)CCCCC1 (centres unmarked) [desvenlafaxine succinate]
